Where two headings read alike, the source gives them in different places.
Experiments:
[1] = biological target: LSD1 (Homo sapiens, UniProt O60341); experiment: LSD1 fluorescence coupling enzyme assay (HRP/Amplex Red, H3(1-21)K4me2 peptide), 10-dose IC50; assay type: biochemical; conditions: 10 μM histone H3(1-21)K4me2 peptide substrate, 3-fold serial dilution from 100 μM
How it was run: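 Fluorescence coupled assay: LSD1 demethylation of 10 μM H3(1-21)K4me2 peptide produces FAD-dependent H2O2, detected via HRP/Amplex Red as resorufin (Ex/Em 535/590 nm). IC50 from 10 doses, 3-fold serial dilution from 100 μM, in duplicate.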

[2] = test system: MV4;11 cells; experiment: Cell Titer-Glo cell growth inhibition in MV4;11 cell line (Day 5 / Day 10); assay type: cell-based; conditions: Homo sapiens
How it was run: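 Cells seeded at 3750/well and treated with a 10-point, 4-fold dose curve from 0 to 50 µM; ATP-based luminescence viability read at Day 5. A portion is reseeded into fresh compound and media for 5 more days, read at Day 10; IC50 derived from luminescence.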

[3] = MV4-11, 120 h, Day 5, read-out: Cell Titer-Glo IC50 (5 d)
[4] = MV4-11, 240 h, Day 10, read-out: Cell Titer-Glo IC50 (10 d)

N#Cc1ccc(-c2cc(NCC3CCCNCC3)nn2-c2ccc(C(=O)N3CCCC3)cc2)cc1F (stereo not shown) [Example 25, 4-(3-((azepan-4-ylmethyl)amino)-1-(4-(pyrrolidine-1-carbonyl)phenyl)-1H-pyrazol-5-yl)-2-fluorobenzonitrile]
IC50 [1]: 1000 to 10000 nM
IC50 [2, 3]: 500 to 1000 nM
IC50 [2, 4]: < 500 nM

N#Cc1ccc(-c2cc(NCC3CCCNCC3)nn2-c2ccc(N3CCS(=O)(=O)CC3)cc2)cc1F (stereo not shown) [Example 26, 4-(3-((azepan-4-ylmethyl)amino)-1-(4-(1,1-dioxidothiomorpholino)-phenyl)-1H-pyrazol-5-yl)-2-fluorobenzonitrile]
IC50 [1]: < 500 nM
IC50 [2, 3]: < 500 nM
IC50 [2, 4]: < 500 nM

N#Cc1ccc(-c2cc(NCC3CCCNCC3)nn2-c2ccc(N3CCN(CCO)CC3)cc2)cc1F (stereo not shown) [Example 27, 4-(3-((azepan-4-ylmethyl)amino)-1-(4-(4-(2-hydroxyethyl)piperazin-1-yl)phenyl)-1H-pyrazol-5-yl)-2-fluorobenzonitrile]
IC50 [1]: < 500 nM
IC50 [2, 3]: < 500 nM
IC50 [2, 4]: < 500 nM

COc1ccc(-n2nc(NCC3CCCC(CN)C3)cc2-c2ccc(C#N)c(F)c2)cc1 (stereo not shown) [Example 28, 4-(3-(((-3-(aminomethyl)cyclohexyl)methyl)amino)-1-(4-methoxyphenyl)-1H-pyrazol-5-yl)-2-fluorobenzonitrile]
IC50 [1]: 500 to 1000 nM
IC50 [2, 3]: 1000 to 10000 nM
IC50 [2, 4]: 1000 to 10000 nM

Cn1cc2cc(-n3nc(NC[C@@H]4CCC[C@@H](N)C4)c(Cl)c3-c3ccc(C#N)c(F)c3)ccc2n1 [Example 36, 4-(3-((((1R,3R)-3-aminocyclohexyl)methyl)amino)-4-chloro-1-(2-methyl-2H-indazol-5-yl)-1H-pyrazol-5-yl)-2-fluorobenzonitrile]
IC50 [1]: 1000 to 10000 nM
IC50 [2, 3]: 500 to 1000 nM
IC50 [2, 4]: < 500 nM

Cn1cc2cc(-n3nc(NC[C@H]4CCC[C@H](N)C4)c(Cl)c3-c3ccc(C#N)c(F)c3)ccc2n1 [Example 37, 4-(3-((((1S,3S)-3-aminocyclohexyl)methyl)amino)-4-chloro-1-(2-methyl-2H-indazol-5-yl)-1H-pyrazol-5-yl)-2-fluorobenzonitrile]
IC50 [1]: < 500 nM
IC50 [2, 3]: < 500 nM
IC50 [2, 4]: < 500 nM

COc1ccc(-n2nc(NCc3cccc(N)c3)cc2-c2ccc(C#N)c(F)c2)cc1 [Example 40, 4-(3-((3-aminobenzyl)amino)-1-(4-methoxyphenyl)-1H-pyrazol-5-yl)-2-fluorobenzonitrile]
IC50 [1]: 1000 to 10000 nM
IC50 [2, 4]: > 10000 nM

COc1ccc(-n2nc(NC[C@H]3C[C@@H](N)C3)cc2-c2ccc(C#N)c(F)c2)cc1 [Example 41, 4-(3-((((1s,3s)-3-aminocyclobutyl)methyl)amino)-1-(4-methoxyphenyl)-1H-pyrazol-5-yl)-2-fluorobenzonitrile]
IC50 [1]: < 500 nM
IC50 [2, 3]: < 500 nM
IC50 [2, 4]: < 500 nM

COc1ccc(-n2nc(NC[C@H]3C[C@H](N)C3)cc2-c2ccc(C#N)c(F)c2)cc1 [Example 42, 4-(3-((((1r,3r)-3-aminocyclobutyl)methyl)amino)-1-(4-methoxyphenyl)-1H-pyrazol-5-yl)-2-fluorobenzonitrile]
IC50 [1]: 1000 to 10000 nM
IC50 [2, 3]: 1000 to 10000 nM
IC50 [2, 4]: < 500 nM

COC1CCN(c2ccc(-n3nc(NC[C@H]4CCC[C@H](N)C4)cc3-c3ccc(C#N)c(F)c3)cc2)CC1 [Example 43, 4-(3-((((1S,3S)-3-aminocyclohexyl)methyl)amino)-1-(4-(4-methoxypiperidin-1-yl)phenyl)-1H-pyrazol-5-yl)-2-fluorobenzonitrile]
IC50 [1]: < 500 nM
IC50 [2, 4]: < 500 nM

CN1CCN(c2ccc(-n3nc(NC[C@H]4CCC[C@H](N)C4)cc3-c3ccc(C#N)c(F)c3)cc2)CC1 [Example 44, 4-(3-((((1S,3S)-3-aminocyclohexyl)methyl)amino)-1-(4-(4-methylpiperazin-1-yl)phenyl)-1H-pyrazol-5-yl)-2-fluorobenzonitrile]
IC50 [1]: 500 to 1000 nM
IC50 [2, 3]: < 500 nM
IC50 [2, 4]: < 500 nM

CN1CCN(c2cccc(-n3nc(NC[C@H]4CCC[C@H](N)C4)cc3-c3ccc(C#N)c(F)c3)c2)CC1 [Example 45, 4-(3-((((1S,3S)-3-aminocyclohexyl)methyl)amino)-1-(3-(4-methylpiperazin-1-yl)phenyl)-1H-pyrazol-5-yl)-2-fluorobenzonitrile]
IC50 [1]: 1000 to 10000 nM
IC50 [2, 3]: 500 to 1000 nM
IC50 [2, 4]: < 500 nM

N#Cc1ccc(-c2cc(NC[C@H]3CCC[C@H](N)C3)nn2-c2ccc(N3CCN(CCO)CC3)cc2)cc1F [Example 46, 4-(3-((((1S,3S)-3-aminocyclohexyl)methyl)amino)-1-(4-(4-(2-hydroxyethyl)piperazin-1-yl)phenyl)-1H-pyrazol-5-yl)-2-fluorobenzonitrile]
IC50 [1]: < 500 nM
IC50 [2, 3]: < 500 nM
IC50 [2, 4]: < 500 nM

CS(=O)(=O)N1CCN(c2cccc(-n3nc(NC[C@H]4CCC[C@H](N)C4)cc3-c3ccc(C#N)c(F)c3)c2)CC1 [Example 49, 4-(3-((((1S,3S)-3-aminocyclohexyl)methyl)amino)-1-(3-(4-(methylsulfonyl)piperazin-1-yl)phenyl)-1H-pyrazol-5-yl)-2-fluorobenzonitrile]
IC50 [1]: 1000 to 10000 nM
IC50 [2, 3]: 1000 to 10000 nM
IC50 [2, 4]: < 500 nM

N#Cc1ccc(-c2cc(NC[C@H]3CCC[C@H](N)C3)nn2-c2ccc(N3CCS(=O)(=O)CC3)cc2)cc1F [Example 50, 4-(3-((((1S,3S)-3-aminocyclohexyl)methyl)amino)-1-(4-(1,1-dioxidothiomorpholino)phenyl)-1H-pyrazol-5-yl)-2-fluorobenzonitrile]
IC50 [1]: < 500 nM
IC50 [2, 3]: < 500 nM
IC50 [2, 4]: < 500 nM

N#Cc1ccc(-c2cc(NC[C@H]3CCC[C@H](N)C3)nn2-c2cccc(N3CCS(=O)(=O)CC3)c2)cc1F [Example 51, 4-(3-((((1S,3S)-3-aminocyclohexyl)methyl)amino)-1-(3-(1,1-dioxidothiomorpholino)phenyl)-1H-pyrazol-5-yl)-2-fluorobenzonitrile]
IC50 [1]: 1000 to 10000 nM
IC50 [2, 3]: 1000 to 10000 nM
IC50 [2, 4]: < 500 nM

N#Cc1ccc(-c2cc(NC[C@H]3CCC[C@H](N)C3)nn2-c2ccc(-c3cn[nH]c3)cc2)cc1F [Example 52, 4-(1-(4-(1H-pyrazol-4-yl)phenyl)-3-((((1S,3S)-3-aminocyclohexyl)methyl)amino)-1H-pyrazol-5-yl)-2-fluorobenzonitrile]
IC50 [1]: < 500 nM
IC50 [2, 3]: < 500 nM
IC50 [2, 4]: < 500 nM

N#Cc1ccc(-c2cc(NC[C@H]3CCC[C@H](N)C3)nn2-c2cccc(-c3cn[nH]c3)c2)cc1F [Example 53, 4-(1-(3-(1H-pyrazol-4-yl)phenyl)-3-((((1S,3S)-3-aminocyclohexyl)methyl)amino)-1H-pyrazol-5-yl)-2-fluorobenzonitrile]
IC50 [1]: < 500 nM
IC50 [2, 3]: 500 to 1000 nM
IC50 [2, 4]: < 500 nM

Cn1cc(-c2ccc(-n3nc(NC[C@H]4CCC[C@H](N)C4)cc3-c3ccc(C#N)c(F)c3)cc2)cn1 [Example 54, 4-(3-((((1S,3S)-3-aminocyclohexyl)methyl)amino)-1-(4-(1-methyl-1H-pyrazol-4-yl)phenyl)-1H-pyrazol-5-yl)-2-fluorobenzonitrile]
IC50 [1]: < 500 nM
IC50 [2, 3]: < 500 nM
IC50 [2, 4]: < 500 nM

Cn1cc(-c2cccc(-n3nc(NC[C@H]4CCC[C@H](N)C4)cc3-c3ccc(C#N)c(F)c3)c2)cn1 [Example 55, 4-(3-((((1S,3S)-3-aminocyclohexyl)methyl)amino)-1-(3-(1-methyl-1H-pyrazol-4-yl)phenyl)-1H-pyrazol-5-yl)-2-fluorobenzonitrile]
IC50 [1]: < 500 nM
IC50 [2, 3]: 500 to 1000 nM
IC50 [2, 4]: < 500 nM

N#Cc1ccc(-c2cc(NC[C@H]3CCC[C@H](N)C3)nn2-c2ccc(-c3cnn(CCO)c3)cc2)cc1F [Example 56, 4-(3-((((1S,3S)-3-aminocyclohexyl)methyl)amino)-1-(4-(1-(2-hydroxyethyl)-1H-pyrazol-4-yl)phenyl)-1H-pyrazol-5-yl)-2-fluorobenzonitrile]
IC50 [1]: < 500 nM
IC50 [2, 3]: < 500 nM
IC50 [2, 4]: < 500 nM

N#Cc1ccc(-c2cc(NC[C@H]3CCC[C@H](N)C3)nn2-c2cccc(-c3cnn(CCO)c3)c2)cc1F [Example 57, 4-(3-((((1S,3S)-3-aminocyclohexyl)methyl)amino)-1-(3-(1-(2-hydroxyethyl)-1H-pyrazol-4-yl)phenyl)-1H-pyrazol-5-yl)-2-fluorobenzonitrile]
IC50 [1]: < 500 nM
IC50 [2, 3]: 1000 to 10000 nM
IC50 [2, 4]: < 500 nM

N#Cc1ccc(-c2cc(NC[C@H]3CCC[C@H](N)C3)nn2-c2ccc(-c3cnn(CCCO)c3)cc2)cc1F [Example 58, 4-(3-((((1S,3S)-3-aminocyclohexyl)methyl)amino)-1-(4-(1-(3-hydroxypropyl)-1H-pyrazol-4-yl)phenyl)-1H-pyrazol-5-yl)-2-fluorobenzonitrile]
IC50 [1]: < 500 nM
IC50 [2, 3]: < 500 nM
IC50 [2, 4]: < 500 nM

CS(=O)(=O)n1cc(-c2ccc(-n3nc(NC[C@H]4CCC[C@H](N)C4)cc3-c3ccc(C#N)c(F)c3)cc2)cn1 [Example 59, 4-(3-((((1S,3S)-3-aminocyclohexyl)methyl)amino)-1-(4-(1-(methylsulfonyl)-1H-pyrazol-4-yl)phenyl)-1H-pyrazol-5-yl)-2-fluorobenzonitrile]
IC50 [1]: < 500 nM
IC50 [2, 3]: 1000 to 10000 nM
IC50 [2, 4]: < 500 nM

CS(=O)(=O)n1cc(-c2cccc(-n3nc(NC[C@H]4CCC[C@H](N)C4)cc3-c3ccc(C#N)c(F)c3)c2)cn1 [Example 60, 4-(3-((((1S,3S)-3-aminocyclohexyl)methyl)amino)-1-(3-(1-(methylsulfonyl)-1H-pyrazol-4-yl)phenyl)-1H-pyrazol-5-yl)-2-fluorobenzonitrile]
IC50 [1]: 1000 to 10000 nM
IC50 [2, 3]: 1000 to 10000 nM
IC50 [2, 4]: < 500 nM
